Experimental data taken from ChEMBL document CHEMBL3785005, “Novel triazole hybrids of myrrhanone C, a natural polypodane triterpene: Synthesis, cytotoxic activity and cell based studies” (Eur J Med Chem, 2016).
The source made the active and inactive calls. The rule behind the calls is not given here.

Assays:
A549 [1] = assay: Cell cycle arrest in human A549 cells assessed as accumulation at G0/G1 phase at 10 uM after 48 hrs by propidium iodide staining based flow cytometry (reference value: 80.19%); assay type: functional
A549 [2] = assay: Induction of apoptosis in human A549 cells assessed as early apoptotic cells at 5 uM after 48 hrs by Annexin V-FITC/propidium iodide staining based flow cytometry (reference value: 5.19%); assay type: functional
A549 [3] = assay: Induction of apoptosis in human A549 cells assessed as viable cells at 10 uM after 48 hrs by Annexin V-FITC/propidium iodide staining based flow cytometry (reference value: 87.93%); assay type: functional; conditions: A549, 48 h, read-out: Activity
A549 [4] = assay: Induction of apoptosis in human A549 cells assessed as necrotic cells at 10 uM after 48 hrs by Annexin V-FITC/propidium iodide staining based flow cytometry (reference value: 1.68%); assay type: functional
A549 [5] = assay: Induction of apoptosis in human A549 cells assessed as mitochondrial membrane potential at 10 uM after 48 hrs by JC-1 staining based flow cytometry (reference value: 92.5%); assay type: functional
A549 [6] = assay: Induction of apoptosis in human A549 cells assessed as late apoptotic cells at 5 uM after 48 hrs by Annexin V-FITC/propidium iodide staining based flow cytometry (reference value: 5.19%); assay type: functional
A549 [7] = assay: Cell cycle arrest in human A549 cells assessed as accumulation at S phase at 10 uM after 48 hrs by propidium iodide staining based flow cytometry (reference value: 3.51%); assay type: functional
A549 [8] = assay: Cell cycle arrest in human A549 cells assessed as accumulation at G2/M phase at 5 uM after 48 hrs by propidium iodide staining based flow cytometry (reference value: 14.07%); assay type: functional
HepG2 = assay: Cytotoxicity against human HepG2 cells assessed as cell viability after 48 hrs by MTT assay; assay type: functional, cell-based; conditions: HepG2, 48 h
A549 [9] = assay: Induction of apoptosis in human A549 cells assessed as mitochondrial membrane potential at 5 uM after 48 hrs by JC-1 staining based flow cytometry (reference value: 92.5%); assay type: functional
A549 [10] = assay: Induction of apoptosis in human A549 cells assessed as cytoplasmic condensation at 5 to 10 uM after 48 hrs by Hoechst 33258 staining based fluorescence microscopic analysis; assay type: functional, cell-based
A549 [11] = assay: Cell cycle arrest in human A549 cells assessed as accumulation at S phase at 5 uM after 48 hrs by propidium iodide staining based flow cytometry (reference value: 3.51%); assay type: functional
A549 [12] = assay: Cell cycle arrest in human A549 cells assessed as accumulation at G0/G1 phase at 5 uM after 48 hrs by propidium iodide staining based flow cytometry (reference value: 80.19%); assay type: functional
HeLa = assay: Cytotoxicity against human HeLa cells assessed as cell viability after 48 hrs by MTT assay; assay type: functional, cell-based
A549 [13] = assay: Cell cycle arrest in human A549 cells assessed as accumulation at sub G1 phase at 10 uM after 48 hrs by propidium iodide staining based flow cytometry (reference value: 0.76%); assay type: functional
A549 [14] = assay: Induction of apoptosis in human A549 cells assessed as presence of apoptotic bodies at 5 to 10 uM after 48 hrs by Hoechst 33258 staining based fluorescence microscopic analysis; assay type: functional, cell-based
A549 [15] = assay: Induction of apoptosis in human A549 cells assessed as viable cells at 5 uM after 48 hrs by Annexin V-FITC/propidium iodide staining based flow cytometry (reference value: 87.93%); assay type: functional; conditions: A549, 48 h, read-out: Activity
A549 [16] = assay: Induction of apoptosis in human A549 cells assessed as early apoptotic cells at 10 uM after 48 hrs by Annexin V-FITC/propidium iodide staining based flow cytometry (reference value: 5.19%); assay type: functional
A549 [17] = assay: Induction of apoptosis in human A549 cells assessed as nuclear fragmentation at 5 to 10 uM after 48 hrs by Hoechst 33258 staining based fluorescence microscopic analysis; assay type: functional, cell-based
A549 [18] = assay: Cell cycle arrest in human A549 cells assessed as accumulation at G2/M phase at 10 uM after 48 hrs by propidium iodide staining based flow cytometry (reference value: 14.07%); assay type: functional
A549 [19] = assay: Induction of apoptosis in human A549 cells assessed as late apoptotic cells at 10 uM after 48 hrs by Annexin V-FITC/propidium iodide staining based flow cytometry (reference value: 5.19%); assay type: functional
[20] = Cytotoxicity against human DU145 cells assessed as cell viability after 48 hrs by MTT assay; assay type: functional, cell-based; conditions: DU-145, 48 h
A549 [21] = assay: Cell cycle arrest in human A549 cells assessed as accumulation at sub G1 phase at 5 uM after 48 hrs by propidium iodide staining based flow cytometry (reference value: 0.76%); assay type: functional
A549 [22] = assay: Cytotoxicity against human A549 cells assessed as cell viability after 48 hrs by MTT assay; assay type: functional, cell-based; conditions: A549, 48 h
A549 [23] = assay: Induction of apoptosis in human A549 cells assessed as necrotic cells at 5 uM after 48 hrs by Annexin V-FITC/propidium iodide staining based flow cytometry (reference value: 1.68%); assay type: functional
MCF7 = assay: Cytotoxicity against human MCF7 cells assessed as cell viability after 48 hrs by MTT assay; assay type: functional, cell-based; conditions: MCF7, 48 h

Compound	Activity (A549 [1]) [%]	Activity (A549 [2]) [%]	viability at 10 µM (A549 [3]) [%]	Activity (A549 [4]) [%]	Activity (A549 [5]) [%]	Activity (A549 [6]) [%]	Activity (A549 [7]) [%]	Activity (A549 [8]) [%]	IC50 (HepG2) [µM]	Activity (A549 [9]) [%]	Activity (A549 [10])	Activity (A549 [11]) [%]	Activity (A549 [12]) [%]	IC50 (HeLa) [µM]	Activity (A549 [13]) [%]	Activity (A549 [14])	viability at 5 µM (A549 [15]) [%]	Activity (A549 [16]) [%]	Activity (A549 [17])	Activity (A549 [18]) [%]	other results
CC(C)=CCC/C(C)=C/CC/C(C)=C/CC[C@@H]1[C@@]2(C)CC/C(=N\OCc3cn(-c4ccccc4)nn3)C(C)(C)[C@@H]2CC[C@@]1(C)O	60.11	5.23	76.9	1.43	83.5	9.59	0.34	20	9.52	88.1	Active	2.86	75.14	7.76	1.02	Active	84.4	5.4	Active	36.97	Activity (A549 [19]): 16.28%; IC50 [20]: 8.83 µM; Activity (A549 [21]): 0.9%; IC50 (A549 [22]): 6.16 µM; Activity (A549 [23]): 0.81%; IC50 (MCF7): 9.59 µM
COc1cc(OC)c(-n2cc(CO/N=C3\CC[C@]4(C)[C@@H](CC/C=C(\C)CC/C=C(\C)CCC=C(C)C)[C@](C)(O)CC[C@H]4C3(C)C)nn2)c(OC)c1	65.77	4.18	77.4	1.8	84.1	8.56	0.36	18.52	14.1	88.7	Active	3	76.47	12.8	1.14	Active	86	5	Active	31.32	Activity (A549 [19]): 15.83%; IC50 [20]: 11.1 µM; Activity (A549 [21]): 0.73%; IC50 (A549 [22]): 8.12 µM; Activity (A549 [23]): 1.3%; IC50 (MCF7): 14.7 µM
